Measurements published in ChEMBL document CHEMBL3822440, “Semi-synthesis and antiproliferative evaluation of PEGylated pentacyclic triterpenes” (Eur J Med Chem, 2016).
Calls of active or inactive are those of the source. The rule behind the calls is not given here.

What was measured:
[1] = system: HT-29; experiment: Cytotoxicity against human HT-29 cells assessed as growth inhibition after 72 hrs by MTT assay; type: functional, cell-based; details: HT-29, 72 h
[2] = system: B16-F10; experiment: Potency index, ratio of maslinic acid IC50 to compound IC50 for mouse B16F10 cells; type: functional
[3] = Induction of apoptosis in mouse B16F10 cells assessed as live cells at cytotoxic IC50 after 72 hrs by Annexin V-FITC/propidium iodide staining based flow cytometry (reference value: 97.55 +/- 0.5%); type: functional, B16-F10
[4] = Induction of apoptosis in mouse B16F10 cells assessed as early apoptotic cells at cytotoxic IC50 after 72 hrs by Annexin V-FITC/propidium iodide staining based flow cytometry (reference value: 0.75 +/- 0.07%); type: functional, B16-F10
[5] = system: HT-29; experiment: Induction of apoptosis in human HT-29 cells assessed as early apoptotic cells at cytotoxic IC50 after 72 hrs by Annexin V-FITC/propidium iodide staining based flow cytometry (reference value: 1.65 +/- 0.07%); type: functional
[6] = system: HT-29; experiment: Induction of apoptosis in human HT-29 cells assessed as late apoptotic cells at cytotoxic IC50 after 72 hrs by Annexin V-FITC/propidium iodide staining based flow cytometry (reference value: 0.65 +/- 0.35%); type: functional
[7] = system: HT-29; experiment: Induction of apoptosis in human HT-29 cells assessed as necrotic cells at cytotoxic IC50 after 72 hrs by Annexin V-FITC/propidium iodide staining based flow cytometry (reference value: 1.05 +/- 0.35%); type: functional
[8] = system: HepG2; experiment: Induction of apoptosis in human HepG2 cells assessed as early apoptotic cells at cytotoxic IC50 after 72 hrs by Annexin V-FITC/propidium iodide staining based flow cytometry (reference value: 0.3 +/- 0.01%); type: functional
[9] = system: HepG2; experiment: Induction of apoptosis in human HepG2 cells assessed as necrotic cells at cytotoxic IC50 after 72 hrs by Annexin V-FITC/propidium iodide staining based flow cytometry (reference value: 0.1 +/- 0.01%); type: functional
[10] = Cell cycle arrest in mouse B16F10 cells assessed as accumulation at G0/G1 phase at cytotoxic IC50 after 72 hrs by propidium iodide staining based flow cytometry (reference value: 50.69 +/- 0.61%); type: functional, B16-F10
[11] = Cell cycle arrest in mouse B16F10 cells assessed as accumulation at S phase at cytotoxic IC50 after 72 hrs by propidium iodide staining based flow cytometry (reference value: 48.31 +/- 0.74%); type: functional, B16-F10
[12] = Cell cycle arrest in mouse B16F10 cells assessed as accumulation at G2/M phase at cytotoxic IC50 after 72 hrs by propidium iodide staining based flow cytometry (reference value: 1.01 +/- 0.13%); type: functional, B16-F10
[13] = system: HT-29; experiment: Cell cycle arrest in human HT-29 cells assessed as accumulation at G0/G1 phase at cytotoxic IC50 after 72 hrs by propidium iodide staining based flow cytometry (reference value: 55.18 +/- 0.22%); type: functional
[14] = system: HT-29; experiment: Cell cycle arrest in human HT-29 cells assessed as accumulation at G2/M phase at cytotoxic IC50 after 72 hrs by propidium iodide staining based flow cytometry (reference value: 6.23 +/- 1.7%); type: functional
[15] = system: HepG2; experiment: Cell cycle arrest in human HepG2 cells assessed as accumulation at S phase at cytotoxic IC50 after 72 hrs by propidium iodide staining based flow cytometry (reference value: 54.71 +/- 2.37%); type: functional
[16] = system: HepG2; experiment: Cell cycle arrest in human HepG2 cells assessed as accumulation at G2/M phase at cytotoxic IC50 after 72 hrs by propidium iodide staining based flow cytometry (reference value: 8.47 +/- 2.55%); type: functional
[17] = Disruption of mitochondrial membrane potential in mouse B16F10 cells assessed as rhodamine123 positive cells at cytotoxic IC50 after 72 hrs by propidium iodide staining based fluorescence spectroscopic analysis (reference value: 95.6 +/- 0.57%); type: functional, B16-F10
[18] = system: HT-29; experiment: Disruption of mitochondrial membrane potential in human HT-29 cells assessed as rhodamine123 negative cells at cytotoxic IC50 after 72 hrs by propidium iodide staining based fluorescence spectroscopic analysis (reference value: 5.8 +/- 0.42%); type: functional
[19] = system: HepG2; experiment: Disruption of mitochondrial membrane potential in human HepG2 cells assessed as rhodamine123 positive cells at cytotoxic IC50 after 72 hrs by propidium iodide staining based fluorescence spectroscopic analysis (reference value: 88.3 +/- 8.87%); type: functional
[20] = system: B16-F10; experiment: Induction of apoptosis in mouse B16F10 cells assessed as nucleus containing nicked DNA at cytotoxic IC50 after 72 hrs by Hoechst staining based fluorescence microscopic analysis; type: functional, cell-based
[21] = system: B16-F10; experiment: Induction of apoptosis in mouse B16F10 cells assessed as spherical cell shape at cytotoxic IC50 after 72 hrs by Hoechst staining based fluorescence microscopic analysis; type: functional
[22] = system: B16-F10; experiment: Induction of apoptosis in mouse B16F10 cells assessed as bubble shaped region in cell surface at cytotoxic IC50 after 72 hrs by Hoechst staining based fluorescence microscopic analysis; type: functional
[23] = system: B16-F10; experiment: Induction of apoptosis in mouse B16F10 cells assessed as chromatin condensation at cytotoxic IC50 after 72 hrs by Hoechst staining based fluorescence microscopic analysis; type: functional, cell-based
[24] = system: B16-F10; experiment: Induction of apoptosis in mouse B16F10 cells assessed as loss of nuclear architecture at cytotoxic IC50 after 72 hrs by Hoechst staining based fluorescence microscopic analysis; type: functional, cell-based
[25] = system: B16-F10; experiment: Induction of apoptosis in mouse B16F10 cells assessed as disruption of cell membrane integrity at cytotoxic IC50 after 72 hrs by Hoechst staining based fluorescence microscopic analysis; type: functional
[26] = system: HT-29; experiment: Induction of apoptosis in human HT-29 cells assessed as nucleus containing nicked DNA at cytotoxic IC50 after 72 hrs by Hoechst staining based fluorescence microscopic analysis; type: functional, cell-based
[27] = system: HT-29; experiment: Induction of apoptosis in human HT-29 cells assessed as cell shrinkage at cytotoxic IC50 after 72 hrs by Hoechst staining based fluorescence microscopic analysis; type: functional
[28] = system: HT-29; experiment: Induction of apoptosis in human HT-29 cells assessed as spherical cell shape at cytotoxic IC50 after 72 hrs by Hoechst staining based fluorescence microscopic analysis; type: functional
[29] = system: HT-29; experiment: Induction of apoptosis in human HT-29 cells assessed as bubble shaped region in cell surface at cytotoxic IC50 after 72 hrs by Hoechst staining based fluorescence microscopic analysis; type: functional
[30] = system: HT-29; experiment: Induction of apoptosis in human HT-29 cells assessed as loss of nuclear architecture at cytotoxic IC50 after 72 hrs by Hoechst staining based fluorescence microscopic analysis; type: functional, cell-based
[31] = system: HT-29; experiment: Induction of apoptosis in human HT-29 cells assessed as disruption of cell membrane integrity at cytotoxic IC50 after 72 hrs by Hoechst staining based fluorescence microscopic analysis; type: functional
[32] = system: HepG2; experiment: Induction of apoptosis in human HepG2 cells assessed as cell shrinkage at cytotoxic IC50 after 72 hrs by Hoechst staining based fluorescence microscopic analysis; type: functional
[33] = system: HepG2; experiment: Induction of apoptosis in human HepG2 cells assessed as chromatin condensation at cytotoxic IC50 after 72 hrs by Hoechst staining based fluorescence microscopic analysis; type: functional, cell-based
[34] = system: HepG2; experiment: Induction of apoptosis in human HepG2 cells assessed as loss of nuclear architecture at cytotoxic IC50 after 72 hrs by Hoechst staining based fluorescence microscopic analysis; type: functional, cell-based
[35] = system: HepG2; experiment: Induction of apoptosis in human HepG2 cells assessed as disruption of cell membrane integrity at cytotoxic IC50 after 72 hrs by Hoechst staining based fluorescence microscopic analysis; type: functional

Row | SMILES | IC50 [1] [µM] | Ratio IC50 [2] | Activity [3] [%] | Activity [4] [%] | Activity [5] [%] | Activity [6] [%] | Activity [7] [%] | Activity [8] [%] | Activity [9] [%] | Activity [10] [%] | Activity [11] [%] | Activity [12] [%] | Activity [13] [%] | Activity [14] [%] | Activity [15] [%] | Activity [16] [%] | Activity [17] [%] | Activity [18] [%] | Activity [19] [%] | Activity [20] | other results
1 | COCCOCCOCC(=O)O[C@@H]1C[C@]2(C)[C@H]3CC=C4[C@@H]5CC(C)(C)CC[C@]5(C(=O)O)CC[C@@]4(C)[C@]3(C)CC[C@H]2C(C)(C)[C@H]1OC(=O)COCCOCCOC | 39.7 | 0.7 | 11.1 | 32.8 | 40.1 | 0.15 | 0 | 14.75 | 0.4 | 87.93 | 12.07 | 0 | 94.28 | 0.76 | 26.7 | 15.45 | 75.05 | 5.7 | 56.7 | Active | Activity [21]: Active; Activity [22]: Active; Activity [23]: Active; Activity [24]: Active; Activity [25]: Active; Activity [26]: Active; Activity [27]: Active; Activity [28]: Active; Activity [29]: Active; Activity [30]: Active; Activity [31]: Active; Activity [32]: Active; Activity [33]: Active; Activity [34]: Active; Activity [35]: Active
2 | CC1(C)CC[C@]2(C(=O)NCCCOCCOCCOCCCN)CC[C@]3(C)C(=CC[C@@H]4[C@@]5(C)C[C@@H](O)[C@H](O)C(C)(C)[C@@H]5CC[C@]43C)[C@@H]2C1 | 11.8 | 3.2 | 0.9 | 60.25 | 31.25 | 7.6 | 0.2 | 46.75 | 0.4 | 66.66 | 22.44 | 10.91 | 79.78 | 13.1 | 50.45 | 9.34 | 48.05 | 36.95 | 59.2 | Active | Activity [21]: Active; Activity [22]: Active; Activity [23]: Active; Activity [24]: Active; Activity [25]: Active; Activity [26]: Active; Activity [27]: Active; Activity [28]: Active; Activity [29]: Active; Activity [30]: Active; Activity [31]: Active; Activity [32]: Active; Activity [33]: Active; Activity [34]: Active; Activity [35]: Active
